Patent US20100048575A1, “NOVEL TETRACYCLIC INHIBITORS OF CYSTEINE PROTEASES, THE PHARMACEUTICAL COMPOSITIONS THEREOF AND THEIR THERAPEUTIC APPLICATIONS” (priority 2006, published 2010)

How the values were obtained:
[1] = system: PC-3 prostate cancer cells; experiment: PC3 cell viability and proliferation assay (MTS); assay type: cell-based; settings: Homo sapiens, 72 hours, mean of 3 independent experiments, read-out: PC3 GI50 D3
Protocol: PC-3 prostate cancer cells were obtained from ATCC, and maintained in F-12K medium containing 7% FBS and 1% penicillin/streptomycin. Cells were incubated at 37° C. in a humidified atmosphere containing 5% CO2.
Cell viability was assayed using the MTS technique in 96-well culture plates (CellTiter 96® Aqueous Non-Radioactive Cell Proliferation Assay, Promega) according to the manufacturer's instructions. MTS (3-(4,5-dimethyl-thiazol-2-yl)-5-(3-carboxymethoxyphenyl)-2-(4-sulfophenyl)-2H-tetrazolium) is a MTT-derived tetrazolium that is reduced in metabolically active cells into a soluble, cell-permeant formazan. The amount of formazan, detected by its absorbance at 492 nm is proportional to the number of living, metabolically active cells.
2×10^3 PC3 cells were seeded per well. 24 hours later, the medium was changed and the cells treated in triplicate with the following concentrations of each compound: 10 μM-3.33 μM-1.11 μM-370 nM-123 nM-41 nM-14 nM and 5 nM. The compounds were diluted in 100% DMSO, whose final concentration on cells was kept at 0.5%.
Cells were incubated with the compounds for 72 hours, and their viability then assayed by the addition of MTS for 2 hours. Absorbance at 492 nm was measured directly from the 96-well culture plates. GI50 (Growth Inhibition 50) concentrations for each compound were calculated using a sigmoidal variable slope fit (Prism 4.0, Graphpad Softwares). Values represent mean of 3 independent experiments.

USP8 = molecular target: T1, USP8 (Homo sapiens, UniProt P40818); experiment: USP8 activity assay (Ub-AMC); assay type: biochemical; settings: 400 nM Ub-AMC, 630 pM enzyme, pH8.8, 30 min pre-incubation, 60 min at 37° C., sigmoidal fit; read-out: USP8 (inhibition of cysteine protease activity)
T1 construct: His tag (from vector pFastBac-HT) (N); made in house; host or cells: insect cells (Sf9 or High Five), baculovirus
T1 sequence (P40818 1-1118): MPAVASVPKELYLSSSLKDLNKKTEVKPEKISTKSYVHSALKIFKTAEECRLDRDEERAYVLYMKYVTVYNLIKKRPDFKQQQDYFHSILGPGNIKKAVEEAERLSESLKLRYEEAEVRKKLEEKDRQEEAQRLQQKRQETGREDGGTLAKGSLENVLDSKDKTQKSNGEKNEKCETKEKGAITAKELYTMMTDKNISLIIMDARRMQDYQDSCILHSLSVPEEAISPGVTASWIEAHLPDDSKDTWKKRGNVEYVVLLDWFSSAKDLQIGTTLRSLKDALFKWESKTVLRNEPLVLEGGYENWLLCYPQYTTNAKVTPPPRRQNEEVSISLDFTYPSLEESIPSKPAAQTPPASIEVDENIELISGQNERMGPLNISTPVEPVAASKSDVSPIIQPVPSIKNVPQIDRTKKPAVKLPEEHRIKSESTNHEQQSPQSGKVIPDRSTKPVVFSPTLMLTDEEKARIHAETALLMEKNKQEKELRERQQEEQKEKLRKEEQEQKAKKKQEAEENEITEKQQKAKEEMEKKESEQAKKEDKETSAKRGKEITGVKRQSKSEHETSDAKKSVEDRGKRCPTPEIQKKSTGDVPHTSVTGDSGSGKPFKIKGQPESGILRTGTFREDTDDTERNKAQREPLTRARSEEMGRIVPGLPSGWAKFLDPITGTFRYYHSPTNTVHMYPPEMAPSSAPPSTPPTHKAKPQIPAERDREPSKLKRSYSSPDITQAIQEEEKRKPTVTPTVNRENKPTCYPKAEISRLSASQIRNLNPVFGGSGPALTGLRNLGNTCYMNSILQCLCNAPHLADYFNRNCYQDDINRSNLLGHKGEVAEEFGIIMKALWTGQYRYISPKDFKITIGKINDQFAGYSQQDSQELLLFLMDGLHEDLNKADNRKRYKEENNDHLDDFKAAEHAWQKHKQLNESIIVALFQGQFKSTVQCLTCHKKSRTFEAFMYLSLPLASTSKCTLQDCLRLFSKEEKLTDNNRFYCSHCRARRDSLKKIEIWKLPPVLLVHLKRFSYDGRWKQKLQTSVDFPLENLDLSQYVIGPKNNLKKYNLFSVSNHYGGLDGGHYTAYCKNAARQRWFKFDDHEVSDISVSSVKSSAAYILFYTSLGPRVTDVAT
From the text: The cDNA encoding USP8 was obtained by PCR amplification from placenta mRNA. USP8 cDNA was subcloned by PCR into a baculovirus expression vector (pFastBac-HT; Invitrogen). A cDNA encoding a mutated USP8 was generated by mutagenic PCR. The corresponding protein encodes a cysteine to alanine substitution at residue 786. The sequences were ascertained by sequencing of the entire open reading frame. Bacmids encoding […] were generated following. DH10bac transposition. The corresponding bacmids were transfected into insect cells (Sf9). Viruses were recovered from culture supernatant and amplified twice. Insect cells (Sf9 or High Five; Invitrogen) were infected for 72 hours. Total cell lysates were harvested and lyzed in lysis buffer (Tris HCl 50 mM pH7.6; 0.75% NP40; 500 mM NaCl; 10% glycerol; 1 mM DTT; 10 mM imidazole; Protease Inhibitor Cocktail; AEBSF 20 μg.ml^−1; Aprotinin 10 μg.ml^−1). Proteins were affinity purified on metal affinity resins (Talon Metal affinity resin; BD Biosciences). Bound materials were extensively washed in wash buffer (50 mM Sodium Phosphate pH 7.0; 300 mM NaCl; 10 mM imidazole; 0.5% Triton X-100; 10% glycerol) and eluted from the resin in 250 mM imidazole-containing wash buffer. Proteins were dialyzed in dialysis buffer (Tris HCl pH 7.6 20 mM; NaCl 200 mM; DTT 1 mM; EDTA 1 mM; 10% Glycerol). Proteins purifications were analyzed on 4-12% NuPAGE (Invitrogen).
USP8 was diluted in USP buffer (50 mM Tris HCl; 0.5 mM EDTA; 5 mM DTT; 0.01% Triton X-100; Bovine Serum Albumin 0.05 mg.ml^−1 pH8.8). Compounds stocks (100 mM) were stored at −20° C. in DMSO.
Reactions were performed as duplicates in Black LJL 96 well plates (HE microplates; Molecular Devices; 20 μl final reaction volume). The substrate concentration for USP8 was 400 nM Ub-AMC (Boston Biochem). The concentrations of the enzyme (USP8) in specificity assays was 630 pM. The concentrations were determined in order to perform specificity assays under initial velocities at fixed substrate concentration. Compounds were pre-incubated with enzymes for 30 minutes at 25° C. Reactions were initiated by addition of substrate to the plates containing the enzymes (+/−compounds) diluted in assay buffer. Reactions were incubated for 60 minutes at 37° C. Reactions were stopped by adding acetic acid (100 mM final). Readings were performed on a Pherastar Fluorescent Reader (BMG). λ Emission 380 nm; λ Excitation=460 nm. Data (mean values +/−standard deviation) were analyzed as % of control (no compound) and plotted as percentage versus the Log of the compound concentration using GraphPad (Prism). Data were fitted to a sigmoidal model (variable slope).

Row | SMILES | GI50 [1] | IC50 (USP8)
1 | CON=C1c2ccccc2-c2nn3c(C)nnc3nc21 (mixture of isomers) [5a, 3-Methyl-1,2,3a,4,10-pentaaza-cyclopenta[b]fluoren-9-one O-methyl-oxime] | 6150 nM | 580 nM
2 | C=CCON=C1c2ccccc2-c2nn3c(C)nnc3nc21 (mixture of isomers) [5b, 3-Methyl-1,2,3a,4,10-pentaaza-cyclopenta[b]fluoren-9-one O-allyl-oxime] | 6690 nM | 355 nM
3 | C=CCON=C1c2ccccc2-c2nn3c(CCCC)nnc3nc21 (mixture of isomers) [5d, 3-Butyl-1,2,3a,4,10-pentaaza-cyclopenta[b]fluoren-9-one O-allyl-oxime] | 2790 nM | 565 nM
4 | CCCCCCCCCCON=C1c2ccccc2-c2nn3nnnc3nc21 (mixture of isomers) [8a, 1,2,3,3a, 4,10-Hexaaza-cyclopenta[b]fluoren-9-one O-decyl-oxime] | 391 nM | 27800 nM
5 | COCCON=C1c2ccccc2-c2nn3nnnc3nc21 (mixture of isomers) [8b, 1,2,3,3a, 4,10-Hexaaza-cyclopenta[b]fluoren-9-one O-(2-methoxy-ethyl)-oxime] | 457 nM | 

Further lines, results first:

Row | GI50 [1] | IC50 (USP8) | SMILES
6 | 502 nM | 225 nM | c1ccc(OCCCON=C2c3ccccc3-c3nn4nnnc4nc32)cc1 (mixture of isomers) [8c, 1,2,3,3a,4,10-Hexaaza-cyclopenta[b]fluoren-9-one O-(3-phenoxy-propyl)-oxime]
7 |  | 528 nM | CCc1nnc2nc3c(nn12)-c1ccccc1C3=NOC (mixture of isomers) [10b, 3-Ethyl-1,2,3a,4,10-pentaaza-cyclopenta[b]fluoren-9-one O-methyl-oxime]
8 |  | 381 nM | CCON=C1c2ccccc2-c2nn3c(CC)nnc3nc21 (mixture of isomers) [10d, 3-Ethyl-1,2,3a,4,10-pentaaza-cyclopenta[b]fluoren-9-one O-ethyl-oxime]
9 | 8400 nM | 342 nM | C=CCON=C1c2ccccc2-c2nn3c(CC)nnc3nc21 (mixture of isomers) [10f, 3-Ethyl-1,2,3a,4,10-pentaaza-cyclopenta[b]fluoren-9-one O-allyl-oxime]
10 |  | 807 nM | CCc1nnc2nc3c(nn12)-c1ccccc1C3=NOCc1ccccc1 (mixture of isomers) [10h, 3-Ethyl-1,2,3a,4,10-pentaaza-cyclopenta[b]fluoren-9-one O-benzyl-oxime]
11 | 180 nM |  | C=CCON=C1c2ccccc2-c2nn3nnnc3nc21 (mixture of isomers) [compound 6, 1,2,3,3a,4,10-hexaaza-cyclopenta[b]fluoren-9-one O-allyl-oxime]
12 | 466 nM |  | ON=C1c2ccccc2-c2nn3nnnc3nc21 (mixture of isomers) [compound 7, 1,2,3,3a,4,10-hexaaza-cyclopenta[b]fluoren-9-one oxime]
